According to patent US4957940A, “Bicyclo heptane and bicyclo octane substituted inhibitors of cholesterol synthesis” (Warner-Lambert Company, priority 1989, dated 1990):

System: biosynthesis of cholesterol
Experiment: CSI screen: inhibition of cholesterol biosynthesis (14C-acetate incorporation into nonsaponifiable lipid by rat liver homogenate)
Type: biochemical
Conditions: 50% inhibition of sterol synthesis over a one-hour period
Procedure: The ability of compounds of the present invention to inhibit the biosynthesis of cholesterol was measured by a method (designated CSI screen) which utilizes the procedure described by R. E. Dugan, et al, Archiv. Biochem. Biophys., (1972), 152, 21-27. In this method, the level of HMG-CoA enzyme activity in standard laboratory rats is increased by feeding the rats a chow diet containing 5% cholestryramine for four days, after which the rats are sacrificed.
The rat livers are homogenized, and the incorporation of […] into nonsaponifiable lipid by the rat liver homogenate is measured. The micromolar concentration of compound required for 50% inhibition of sterol synthesis over a one-hour period is measured, and expressed as an IC50 value.

C=C1CC2(C)CC1C(c1ccccc1)=C2/C=C/[C@@H]1C[C@@H](O)CC(=O)O1 (relative stereo)
IC50: 440 nM
